From patent US12522583B2, “Benzimidazole derivatives and aza-benzimidazole derivatives as Janus kinase 2 inhibitors and uses thereof” (Dana-Farber Cancer Institute, Inc., priority 2018, dated 2026)

Tests used:
Assay in all cases: KINOMEscan
Assay type in all cases: binding
Details in all cases: read-out: percent control
MYO3A = MYO3A (Homo sapiens (Human), UniProt Q8NEV4)
Text: (§1) Example 2. In Vitro Kinase Selectivity Profiling of the Compounds of the Present Disclosure

[1] = target: JAK3(JH1domain-catalytic) (Homo sapiens (Human), UniProt P52333)
Text: as §1

RIOK1 = RIOK1 (Homo sapiens (Human), UniProt Q9BRS2)
Text: as §1

SBK1 = SBK1 (Homo sapiens (Human), UniProt Q52WX2)
Text: as §1

MEK5 = MEK5 (Homo sapiens (Human), UniProt Q13163)
Text: as §1

[2] = target: TYK2(JH2domain-pseudokinase) (Homo sapiens (Human), UniProt P29597)
Text: as §1

CAMK1D = CAMK1D (Homo sapiens (Human), UniProt Q8IU85)
Text: as §1

CAMKK1 = CAMKK1 (Homo sapiens (Human), UniProt Q8N5S9)
Text: as §1

CDK5 = CDK5 (Homo sapiens (Human), UniProt Q00535)
Text: as §1

[3] = target: ABL1(Y253F)-phosphorylated (Homo sapiens (Human), UniProt P00519, Y253F)
Text: as §1

PIK3CG = PIK3CG (Homo sapiens (Human), UniProt P48736)
Text: as §1

PFTK1 = PFTK1 (Homo sapiens (Human), UniProt O94921)
Text: as §1

CDK4-cyclinD1 = CDK4-cyclinD1 (Homo sapiens (Human), UniProt P11802)
Text: as §1

MAPKAPK2 = MAPKAPK2 (Homo sapiens (Human), UniProt P49137)
Text: as §1

EPHA1 = EPHA1 (Homo sapiens (Human), UniProt P21709)
Text: as §1

PYK2 = PYK2 (Homo sapiens (Human), UniProt Q14289)
Text: as §1

KIT(V559D, V654A) = KIT(V559D, V654A) (Homo sapiens (Human), UniProt P10721, V559D/V654A)
Text: as §1

MST4 = MST4 (Homo sapiens (Human), UniProt Q9P289)
Text: as §1

DAPK2 = DAPK2 (Homo sapiens (Human), UniProt Q9UIK4)
Text: as §1

SRPK2 = SRPK2 (Homo sapiens (Human), UniProt P78362)
Text: as §1

ANKK1 = ANKK1 (Homo sapiens (Human), UniProt Q8NFD2)
Text: as §1

STK16 = STK16 (Homo sapiens (Human), UniProt O75716)
Text: as §1

ALK(L1196M) = ALK(L1196M) (Homo sapiens (Human), UniProt Q9UM73, L1196M)
Text: as §1

HIPK4 = HIPK4 (Homo sapiens (Human), UniProt Q8NE63)
Text: as §1

ACVR1 = ACVR1 (Homo sapiens (Human), UniProt Q04771)
Text: as §1

PRKCH = PRKCH (Homo sapiens (Human), UniProt P24723)
Text: as §1

DYRK1A = DYRK1A (Homo sapiens (Human), UniProt Q13627)
Text: as §1

MLK3 = MLK3 (Homo sapiens (Human), UniProt Q16584)
Text: as §1

ACVR1B = ACVR1B (Homo sapiens (Human), UniProt P36896)
Text: as §1

[4] = target: ABL1(M351T)-phosphorylated (Homo sapiens (Human), UniProt P00519, M351T)
Text: as §1

PIK3C2G = PIK3C2G (Homo sapiens (Human), UniProt O75747)
Text: as §1

PIK3CA(E542K) = PIK3CA(E542K) (Homo sapiens (Human), UniProt P42336, E542K)
Text: as §1

PRKCD = PRKCD (Homo sapiens (Human), UniProt Q05655)
Text: as §1

PDPK1 = PDPK1 (Homo sapiens (Human), UniProt O15530)
Text: as §1

BMPR2 = BMPR2 (Homo sapiens (Human), UniProt Q13873)
Text: as §1

YSK1 = YSK1 (Homo sapiens (Human), UniProt O00506)
Text: as §1

ROCK1 = ROCK1 (Homo sapiens (Human), UniProt Q13464)
Text: as §1

CSNK1D = CSNK1D (Homo sapiens (Human), UniProt P48730)
Text: as §1

CTK = CTK (Homo sapiens (Human), UniProt P42679)
Text: as §1

MEK1 = MEK1 (Homo sapiens (Human), UniProt Q02750)
Text: as §1

MEK5, sequence (Q13163 whole entry): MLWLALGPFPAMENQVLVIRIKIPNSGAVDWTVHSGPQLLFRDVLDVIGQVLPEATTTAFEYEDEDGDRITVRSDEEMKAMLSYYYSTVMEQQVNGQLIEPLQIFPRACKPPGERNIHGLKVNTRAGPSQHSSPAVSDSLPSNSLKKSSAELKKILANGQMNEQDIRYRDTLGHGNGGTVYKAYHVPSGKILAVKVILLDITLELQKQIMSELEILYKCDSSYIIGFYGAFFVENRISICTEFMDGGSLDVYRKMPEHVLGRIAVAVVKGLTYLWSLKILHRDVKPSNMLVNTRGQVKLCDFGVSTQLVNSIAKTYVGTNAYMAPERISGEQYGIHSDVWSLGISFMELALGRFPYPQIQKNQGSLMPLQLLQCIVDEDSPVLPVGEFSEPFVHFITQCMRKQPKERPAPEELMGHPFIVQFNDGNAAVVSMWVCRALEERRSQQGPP
PRKCH, sequence (P24723 whole entry): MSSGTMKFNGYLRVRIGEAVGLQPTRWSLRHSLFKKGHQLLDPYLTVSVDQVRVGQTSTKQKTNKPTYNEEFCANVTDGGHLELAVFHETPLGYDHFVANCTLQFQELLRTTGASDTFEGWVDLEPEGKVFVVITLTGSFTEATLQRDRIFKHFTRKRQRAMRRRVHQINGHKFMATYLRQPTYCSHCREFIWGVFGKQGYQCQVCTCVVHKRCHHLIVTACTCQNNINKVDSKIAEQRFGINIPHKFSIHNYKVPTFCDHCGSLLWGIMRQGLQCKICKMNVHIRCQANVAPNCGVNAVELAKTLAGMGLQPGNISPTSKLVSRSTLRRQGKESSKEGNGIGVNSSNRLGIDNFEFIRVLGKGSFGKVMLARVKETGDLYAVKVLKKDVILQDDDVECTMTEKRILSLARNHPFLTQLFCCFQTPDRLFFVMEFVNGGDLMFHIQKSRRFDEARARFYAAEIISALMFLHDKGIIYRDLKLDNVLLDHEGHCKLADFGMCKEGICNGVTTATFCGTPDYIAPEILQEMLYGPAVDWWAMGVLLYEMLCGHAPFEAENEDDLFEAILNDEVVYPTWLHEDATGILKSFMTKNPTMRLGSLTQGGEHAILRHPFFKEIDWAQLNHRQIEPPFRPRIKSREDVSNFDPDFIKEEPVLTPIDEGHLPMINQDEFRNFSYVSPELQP
CSNK1D, sequence (P48730 whole entry): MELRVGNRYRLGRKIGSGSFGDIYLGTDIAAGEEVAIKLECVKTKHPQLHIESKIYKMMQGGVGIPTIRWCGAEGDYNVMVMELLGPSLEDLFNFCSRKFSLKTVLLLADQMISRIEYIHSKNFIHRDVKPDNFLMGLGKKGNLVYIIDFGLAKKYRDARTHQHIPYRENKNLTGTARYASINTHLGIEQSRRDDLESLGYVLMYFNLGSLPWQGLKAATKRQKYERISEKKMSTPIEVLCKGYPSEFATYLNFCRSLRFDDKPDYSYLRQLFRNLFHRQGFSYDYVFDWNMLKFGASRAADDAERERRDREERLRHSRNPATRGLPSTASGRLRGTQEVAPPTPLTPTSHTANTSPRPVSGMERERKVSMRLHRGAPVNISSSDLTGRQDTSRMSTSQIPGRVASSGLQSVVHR
DAPK2, sequence (Q9UIK4 whole entry): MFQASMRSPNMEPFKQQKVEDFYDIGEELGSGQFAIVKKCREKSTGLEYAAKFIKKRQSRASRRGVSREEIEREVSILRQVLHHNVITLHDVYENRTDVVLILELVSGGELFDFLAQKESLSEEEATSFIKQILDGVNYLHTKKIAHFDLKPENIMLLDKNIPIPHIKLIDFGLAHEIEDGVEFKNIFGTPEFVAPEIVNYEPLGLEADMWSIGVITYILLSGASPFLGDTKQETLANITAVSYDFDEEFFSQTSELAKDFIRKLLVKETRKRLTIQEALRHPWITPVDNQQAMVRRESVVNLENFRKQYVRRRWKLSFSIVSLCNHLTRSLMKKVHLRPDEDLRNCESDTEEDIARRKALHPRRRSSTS
SBK1, sequence (Q52WX2 whole entry): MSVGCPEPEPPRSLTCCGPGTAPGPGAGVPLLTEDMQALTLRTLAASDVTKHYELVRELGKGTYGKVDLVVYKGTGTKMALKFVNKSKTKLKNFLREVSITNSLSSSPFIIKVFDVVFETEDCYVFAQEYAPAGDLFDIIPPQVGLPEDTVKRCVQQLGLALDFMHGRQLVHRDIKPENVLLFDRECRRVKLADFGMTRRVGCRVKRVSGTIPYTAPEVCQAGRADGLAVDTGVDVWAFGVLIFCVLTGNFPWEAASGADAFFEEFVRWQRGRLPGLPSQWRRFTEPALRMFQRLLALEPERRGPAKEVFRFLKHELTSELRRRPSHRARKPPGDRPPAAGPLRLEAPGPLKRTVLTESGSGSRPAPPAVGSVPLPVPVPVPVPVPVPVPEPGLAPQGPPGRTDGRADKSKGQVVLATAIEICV
MLK3, sequence (Q16584 whole entry): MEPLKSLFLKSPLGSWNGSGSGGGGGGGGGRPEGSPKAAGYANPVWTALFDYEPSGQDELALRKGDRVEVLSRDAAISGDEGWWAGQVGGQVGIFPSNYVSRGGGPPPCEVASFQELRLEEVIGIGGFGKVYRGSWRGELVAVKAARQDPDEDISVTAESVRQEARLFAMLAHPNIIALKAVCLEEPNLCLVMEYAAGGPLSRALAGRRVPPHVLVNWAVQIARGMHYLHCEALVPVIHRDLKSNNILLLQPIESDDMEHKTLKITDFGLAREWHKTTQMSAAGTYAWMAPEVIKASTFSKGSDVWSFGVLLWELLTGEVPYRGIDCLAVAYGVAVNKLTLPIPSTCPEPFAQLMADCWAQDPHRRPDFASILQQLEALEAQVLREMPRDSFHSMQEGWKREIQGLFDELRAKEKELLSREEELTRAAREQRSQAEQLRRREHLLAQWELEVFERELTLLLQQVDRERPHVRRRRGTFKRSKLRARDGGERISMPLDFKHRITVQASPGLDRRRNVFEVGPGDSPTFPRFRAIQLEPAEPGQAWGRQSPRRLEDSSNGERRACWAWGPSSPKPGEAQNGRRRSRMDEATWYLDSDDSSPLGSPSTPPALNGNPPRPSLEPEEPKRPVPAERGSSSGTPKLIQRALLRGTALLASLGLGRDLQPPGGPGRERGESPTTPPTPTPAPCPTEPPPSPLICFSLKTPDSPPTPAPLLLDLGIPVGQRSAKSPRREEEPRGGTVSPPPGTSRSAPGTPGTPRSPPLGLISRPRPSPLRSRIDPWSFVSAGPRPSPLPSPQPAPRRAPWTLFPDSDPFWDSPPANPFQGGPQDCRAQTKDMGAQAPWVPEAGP
MAPKAPK2, sequence (P49137 whole entry): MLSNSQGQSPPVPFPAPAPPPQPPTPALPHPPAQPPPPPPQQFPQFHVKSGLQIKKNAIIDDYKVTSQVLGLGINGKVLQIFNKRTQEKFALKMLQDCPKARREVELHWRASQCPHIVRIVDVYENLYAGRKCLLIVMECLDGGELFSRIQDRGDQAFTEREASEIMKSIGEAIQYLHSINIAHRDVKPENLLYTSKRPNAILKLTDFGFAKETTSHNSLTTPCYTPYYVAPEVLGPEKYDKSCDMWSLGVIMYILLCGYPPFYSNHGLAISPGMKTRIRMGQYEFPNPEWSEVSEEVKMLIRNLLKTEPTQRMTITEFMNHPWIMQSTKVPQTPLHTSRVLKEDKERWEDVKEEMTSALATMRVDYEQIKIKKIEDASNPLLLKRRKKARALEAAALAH
ROCK1, sequence (Q13464 whole entry): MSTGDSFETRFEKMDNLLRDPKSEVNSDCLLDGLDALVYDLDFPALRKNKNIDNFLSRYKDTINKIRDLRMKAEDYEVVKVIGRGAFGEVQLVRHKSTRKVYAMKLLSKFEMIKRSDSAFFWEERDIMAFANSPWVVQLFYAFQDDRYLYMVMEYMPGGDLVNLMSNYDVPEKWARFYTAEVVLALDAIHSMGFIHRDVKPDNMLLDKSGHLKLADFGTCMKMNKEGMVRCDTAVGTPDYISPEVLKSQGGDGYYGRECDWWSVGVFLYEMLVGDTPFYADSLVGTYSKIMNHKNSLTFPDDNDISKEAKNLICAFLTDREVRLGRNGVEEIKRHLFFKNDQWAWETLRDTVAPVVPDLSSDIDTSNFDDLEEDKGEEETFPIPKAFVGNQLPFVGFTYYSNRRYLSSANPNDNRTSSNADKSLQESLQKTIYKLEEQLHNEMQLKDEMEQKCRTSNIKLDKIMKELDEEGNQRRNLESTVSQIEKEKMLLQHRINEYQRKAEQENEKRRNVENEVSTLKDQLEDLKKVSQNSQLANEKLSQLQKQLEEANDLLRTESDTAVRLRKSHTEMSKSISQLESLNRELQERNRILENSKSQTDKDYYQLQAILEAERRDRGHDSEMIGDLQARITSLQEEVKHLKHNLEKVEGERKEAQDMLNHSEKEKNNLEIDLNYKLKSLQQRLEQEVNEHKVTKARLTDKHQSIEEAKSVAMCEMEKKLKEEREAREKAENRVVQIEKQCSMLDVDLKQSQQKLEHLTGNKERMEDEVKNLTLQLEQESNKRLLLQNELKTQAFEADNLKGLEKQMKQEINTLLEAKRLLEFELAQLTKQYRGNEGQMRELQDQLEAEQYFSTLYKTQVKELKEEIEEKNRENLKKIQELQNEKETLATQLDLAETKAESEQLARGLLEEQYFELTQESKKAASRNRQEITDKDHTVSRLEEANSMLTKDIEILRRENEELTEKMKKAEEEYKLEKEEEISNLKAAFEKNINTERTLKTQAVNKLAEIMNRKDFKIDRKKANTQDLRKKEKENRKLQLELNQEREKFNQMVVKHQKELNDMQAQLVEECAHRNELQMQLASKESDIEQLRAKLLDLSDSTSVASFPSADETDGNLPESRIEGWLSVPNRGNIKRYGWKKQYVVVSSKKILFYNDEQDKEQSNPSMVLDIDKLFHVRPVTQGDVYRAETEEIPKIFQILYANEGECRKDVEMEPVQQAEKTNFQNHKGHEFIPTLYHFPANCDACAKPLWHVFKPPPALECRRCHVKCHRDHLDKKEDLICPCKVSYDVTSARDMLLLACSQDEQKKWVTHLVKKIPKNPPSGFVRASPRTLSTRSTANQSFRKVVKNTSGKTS

Row | Compound | remaining binding at 1 µM (MYO3A) | remaining binding at 1 µM [1] | remaining binding at 1 µM (RIOK1) | remaining binding at 1 µM (SBK1) | remaining binding at 1 µM (MEK5) | remaining binding at 1 µM [2] | remaining binding at 1 µM (CAMK1D) | remaining binding at 1 µM (CAMKK1) | remaining binding at 1 µM (CDK5) | remaining binding at 1 µM [3] | remaining binding at 1 µM (PIK3CG) | remaining binding at 1 µM (PFTK1) | remaining binding at 1 µM (CDK4-cyclinD1) | remaining binding at 1 µM (MAPKAPK2) | remaining binding at 1 µM (EPHA1) | remaining binding at 1 µM (PYK2) | remaining binding at 1 µM (KIT(V559D, V654A)) | remaining binding at 1 µM (MST4) | remaining binding at 1 µM (DAPK2) | remaining binding at 1 µM (SRPK2) | other results
1 | CCN1CCN(Cc2ccc(Nc3nc4ccc(Oc5ccnc(NC(C)=O)c5)cc4n3C)cc2C(F)(F)F)CC1 [Compound I-2] | 96% | 84% | 100% | 84% | 59% | 100% | 85% | 100% | 97% | 44% | 100% | 94% | 85% | 78% | 100% | 33% | 7.4% | 89% | 79% | 92% | remaining binding at 1 µM (ANKK1): 100%; remaining binding at 1 µM (STK16): 59%; remaining binding at 1 µM (ALK(L1196M)): 78%; remaining binding at 1 µM (HIPK4): 100%; remaining binding at 1 µM (ACVR1): 99%; remaining binding at 1 µM (PRKCH): 100%; remaining binding at 1 µM (DYRK1A): 92%; remaining binding at 1 µM (MLK3): 100%; remaining binding at 1 µM (ACVR1B): 100%; remaining binding at 1 µM [4]: 37%; remaining binding at 1 µM (PIK3C2G): 80%; remaining binding at 1 µM (PIK3CA(E542K)): 100%; remaining binding at 1 µM (PRKCD): 92%; remaining binding at 1 µM (PDPK1): 94%; remaining binding at 1 µM (BMPR2): 100%; remaining binding at 1 µM (YSK1): 94%; remaining binding at 1 µM (ROCK1): 100%; remaining binding at 1 µM (CSNK1D): 100%; remaining binding at 1 µM (CTK): 83%; remaining binding at 1 µM (MEK1): 94%
2 | CCN1CCN(Cc2ccc(Nc3nc4ccc(Oc5ccnc(NC(C)=O)c5)c(C)c4n3C)cc2C(F)(F)F)CC1 [Compound I-6, N-(4-(2-(4-((4-ethylpiperazin-1-yl)methyl)-3-(trifluoromethyl)phenylamino)-1,7-dimethyl-1H-benzo[d]imidazol-6-yloxy)pyridin-2-yl)acetamide] | 99% | 72% | 100% | 89% | 34% | 76% | 100% | 100% | 90% | 5.5% | 95% | 61% | 83% | 100% | 46% | 8.8% | 19% | 100% | 99% | 75% | remaining binding at 1 µM (ANKK1): 100%; remaining binding at 1 µM (STK16): 82%; remaining binding at 1 µM (ALK(L1196M)): 51%; remaining binding at 1 µM (HIPK4): 100%; remaining binding at 1 µM (ACVR1): 100%; remaining binding at 1 µM (PRKCH): 87%; remaining binding at 1 µM (DYRK1A): 100%; remaining binding at 1 µM (MLK3): 95%; remaining binding at 1 µM (ACVR1B): 94%; remaining binding at 1 µM [4]: 27%; remaining binding at 1 µM (PIK3C2G): 86%; remaining binding at 1 µM (PIK3CA(E542K)): 100%; remaining binding at 1 µM (PRKCD): 89%; remaining binding at 1 µM (PDPK1): 93%; remaining binding at 1 µM (BMPR2): 100%; remaining binding at 1 µM (YSK1): 65%; remaining binding at 1 µM (ROCK1): 83%; remaining binding at 1 µM (CSNK1D): 100%; remaining binding at 1 µM (CTK): 90%; remaining binding at 1 µM (MEK1): 87%
